Measured values published in ChEMBL document CHEMBL4138253, “Synthesis and Biological Evaluation of a Series of Bile Acid Derivatives as FXR Agonists for Treatment of NASH” (ACS Med Chem Lett, 2017).

Assays:
Bile acid receptor [1] = target: T1, Bile acid receptor (Homo sapiens, UniProt Q96RI1); test: Agonist activity at recombinant human GST-tagged FXR LBD (193 to 472 residues) expressed in baculovirus-infected insect cells assessed as recruitment of biotinylated SRC1 peptide measured after 1 hr by Alphascreen assay
T1 sequence (Q96RI1 whole entry): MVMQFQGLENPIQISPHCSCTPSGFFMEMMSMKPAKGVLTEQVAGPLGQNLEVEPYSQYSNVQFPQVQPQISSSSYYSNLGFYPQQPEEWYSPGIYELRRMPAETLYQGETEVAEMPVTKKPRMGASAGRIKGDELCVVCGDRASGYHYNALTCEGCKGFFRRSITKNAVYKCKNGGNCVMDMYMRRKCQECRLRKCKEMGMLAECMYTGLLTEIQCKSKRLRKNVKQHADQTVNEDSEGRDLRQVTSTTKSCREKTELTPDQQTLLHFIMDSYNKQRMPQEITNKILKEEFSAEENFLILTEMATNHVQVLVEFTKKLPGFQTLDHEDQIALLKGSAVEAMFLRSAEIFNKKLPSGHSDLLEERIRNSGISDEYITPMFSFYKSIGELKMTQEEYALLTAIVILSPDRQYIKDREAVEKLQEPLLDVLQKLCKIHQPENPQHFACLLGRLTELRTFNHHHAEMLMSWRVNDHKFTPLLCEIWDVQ

[2] = target: T2, Bile acid receptor (Homo sapiens) (UniProt Q96RI1); test: Agonist activity at recombinant human GST-tagged FXR LBD (193 to 472 residues) expressed in baculovirus-infected insect cells assessed as recruitment of biotinylated SRC1 peptide measured after 1 hr by Alphascreen assay relative to CDCA
T2 sequence (whole entry): T1 sequence (Q96RI1 whole entry)

[3] = target: T3, G-protein coupled bile acid receptor 1 (Homo sapiens, UniProt Q8TDU6); test: Agonist activity at human TGR5 expressed in HEK293 cells assessed as increase in intracellular cAMP level after 1 hr by TR-FRET assay; type: functional, cell-based
T3 sequence (Q8TDU6 whole entry): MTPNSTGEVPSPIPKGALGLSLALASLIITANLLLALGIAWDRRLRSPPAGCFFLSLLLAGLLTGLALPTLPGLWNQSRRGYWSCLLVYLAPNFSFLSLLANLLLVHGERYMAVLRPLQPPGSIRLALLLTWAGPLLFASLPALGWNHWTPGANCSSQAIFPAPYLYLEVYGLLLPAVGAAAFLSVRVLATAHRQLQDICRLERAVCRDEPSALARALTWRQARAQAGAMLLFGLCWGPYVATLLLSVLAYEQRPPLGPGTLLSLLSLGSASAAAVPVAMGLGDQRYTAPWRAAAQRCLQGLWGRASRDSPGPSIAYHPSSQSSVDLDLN

Homo sapiens = organism: Homo sapiens; test: Selectivity ratio of EC50 for recombinant human GST-tagged FXR LBD (193 to 472 residues) expressed in baculovirus-infected insect cells to EC50 for human TGR5 expressed in HEK293 cells
[4] = target: T2, Bile acid receptor (Homo sapiens); test: Agonist activity at FXR (unknown origin) measured after 16 hrs in presence of CCF4-AM dye by cell-based GeneBlazer FRET assay relative to CDCA
Bile acid receptor [5] = target: T1, Bile acid receptor; test: Agonist activity at FXR (unknown origin) measured after 16 hrs in presence of CCF4-AM dye by cell-based GeneBlazer FRET assay

Row | EC50 (Bile acid receptor [1]) [nM] | Efficacy [2] [%] | EC50 [3] [nM] | Efficacy [4] [%] | EC50 (Bile acid receptor [5]) [nM] | SMILES | Ratio EC50 (Homo sapiens)
1 | 280 | 128 |  |  |  | CC[C@H]1[C@@H](O)[C@@H]2[C@H](CC[C@]3(C)[C@@H]([C@H](C)CCNS(C)(=O)=O)CC[C@@H]23)[C@@]2(C)CC[C@@H](O)C[C@@H]12 | 
2 | 70 | 104 | 420 |  |  | CC[C@H]1[C@@H](O)[C@@H]2[C@H](CC[C@]3(C)[C@@H]([C@H](C)CCNC(=O)NC4CC4)CC[C@@H]23)[C@@]2(C)CC[C@@H](O)C[C@@H]12 | 6
3 | 150 | 100 |  |  |  | CC[C@H]1[C@@H](O)[C@@H]2[C@H](CC[C@]3(C)[C@@H]([C@H](C)CCNC(=O)OC4CCC4)CC[C@@H]23)[C@@]2(C)CC[C@@H](O)C[C@@H]12 | 
4 | 2700 | 202 |  |  |  | CC[C@H]1[C@@H](O)[C@@H]2[C@H](CC[C@]3(C)[C@@H]([C@H](C)CCC4NC(=O)NC4=O)CC[C@@H]23)[C@@]2(C)CC[C@@H](O)C[C@@H]12 (some centres not stated) | 
5 | 300 | 162 |  |  |  | CC[C@H]1[C@@H](O)[C@@H]2[C@H](CC[C@]3(C)[C@@H]([C@H](C)CCNC(=O)OC(C)C)CC[C@@H]23)[C@@]2(C)CC[C@@H](O)C[C@@H]12 | 
6 | 30 | 88 |  |  |  | CC[C@H]1[C@@H](O)[C@@H]2[C@H](CC[C@]3(C)[C@@H]([C@H](C)CCNC(=O)c4ccccn4)CC[C@@H]23)[C@@]2(C)CC[C@@H](O)C[C@@H]12 | 
7 | 230 | 142 |  | 168 | 110 | CC[C@H]1[C@@H](O)[C@@H]2[C@H](CC[C@]3(C)[C@@H]([C@H](C)CCNC(=O)OCc4cccs4)CC[C@@H]23)[C@@]2(C)CC[C@@H](O)C[C@@H]12 | 
8 | 130 | 95 |  |  |  | CC[C@H]1[C@@H](O)[C@@H]2[C@H](CC[C@]3(C)[C@@H]([C@H](C)CCCNC(N)=O)CC[C@@H]23)[C@@]2(C)CC[C@@H](O)C[C@@H]12 | 
9 | 1800 | 108 |  |  |  | CC[C@H]1[C@@H](O)[C@@H]2[C@H](CC[C@]3(C)[C@@H]([C@H](C)CCC(=O)O)CC[C@@H]23)[C@@]2(C)CC[C@@H](OC)C[C@@H]12 | 
10 | 110 | 85 |  |  |  | CC[C@H]1[C@@H](O)[C@@H]2[C@H](CC[C@]3(C)[C@@H]([C@H](C)CCCNS(C)(=O)=O)CC[C@@H]23)[C@@]2(C)CC[C@@H](O)C[C@@H]12 | 
11 | 120 | 100 |  | 170 | 80 | CC[C@H]1[C@@H](O)[C@@H]2[C@H](CC[C@]3(C)[C@@H]([C@H](C)CCNC(=O)O[C@@H]4CCOC4)CC[C@@H]23)[C@@]2(C)CC[C@@H](O)C[C@@H]12 | 
12 | 300 | 130 |  |  |  | CC[C@H]1[C@@H](O)[C@@H]2[C@H](CC[C@]3(C)[C@@H]([C@H](C)CCNC(=O)OCc4ccccc4)CC[C@@H]23)[C@@]2(C)CC[C@@H](O)C[C@@H]12 | 
13 | 90 | 109 | 240 | 167 | 80 | CC[C@H]1[C@@H](O)[C@@H]2[C@H](CC[C@]3(C)[C@@H]([C@H](C)CCNC(=O)O[C@H]4CCOC4)CC[C@@H]23)[C@@]2(C)CC[C@@H](O)C[C@@H]12 | 3
14 | 150 | 81 |  |  |  | CC[C@H]1[C@@H](O)[C@@H]2[C@H](CC[C@]3(C)[C@@H]([C@H](C)CCNC(C)=O)CC[C@@H]23)[C@@]2(C)CC[C@@H](O)C[C@@H]12 | 
15 | 700 | 68 |  |  |  | CC[C@H]1[C@@H](O)[C@@H]2[C@H](CC[C@]3(C)[C@@H]([C@H](C)CCC(=O)O)CC[C@@H]23)[C@@]2(C)CCC3(CC3)C[C@@H]12 | 
16 | 600 | 142 |  |  |  | CC[C@H]1[C@@H](O)[C@@H]2[C@H](CC[C@]3(C)[C@@H]([C@H](C)CCC(N)=O)CC[C@@H]23)[C@@]2(C)CC[C@@H](O)C[C@@H]12 | 
17 | 230 | 104 |  |  |  | CC[C@H]1[C@@H](O)[C@@H]2[C@H](CC[C@]3(C)[C@@H]([C@H](C)CCNC(N)=O)CC[C@@H]23)[C@@]2(C)CC[C@@H](O)C[C@@H]12 | 
18 | 240 | 226 |  |  |  | CC[C@H]1[C@@H](O)[C@@H]2[C@H](CC[C@]3(C)[C@@H]([C@H](C)CCC(=O)S)CC[C@@H]23)[C@@]2(C)CC[C@@H](O)C[C@@H]12 | 
19 | 370 | 129 |  |  |  | CC[C@H]1[C@@H](O)[C@@H]2[C@H](CC[C@]3(C)[C@@H]([C@H](C)CCCNC(=O)N4CC[C@H](O)C4)CC[C@@H]23)[C@@]2(C)CC[C@@H](O)C[C@@H]12 | 
20 | 1000 | 263 |  |  |  | CC[C@H]1[C@@H](O)[C@@H]2[C@H](CC[C@]3(C)[C@@H]([C@H](C)CCC(C)=O)CC[C@@H]23)[C@@]2(C)CC[C@@H](O)C[C@@H]12 | 
21 | 300 | 136 |  |  |  | CC[C@H]1[C@@H](O)[C@@H]2[C@H](CC[C@]3(C)[C@@H]([C@H](C)CCC(=O)O)CC[C@@H]23)[C@@]2(C)Cc3cn[nH]c3C[C@@H]12 | 
22 | 300 | 149 |  |  |  | CC[C@H]1[C@@H](O)[C@@H]2[C@H](CC[C@]3(C)[C@@H]([C@H](C)CCNC(=O)OC)CC[C@@H]23)[C@@]2(C)CC[C@@H](O)C[C@@H]12 | 
23 | 1500 | 49 |  |  |  | CC[C@H]1[C@@H](O)[C@@H]2[C@H](CC[C@]3(C)[C@@H]([C@H](C)CCC(=O)O)CC[C@@H]23)[C@@]2(C)CCC(C)C[C@@H]12 (some centres not stated) | 
24 | 80 | 115 | 160 |  |  | CC[C@H]1[C@@H](O)[C@@H]2[C@H](CC[C@]3(C)[C@@H]([C@H](C)CCNC(=O)N4CC[C@H](O)C4)CC[C@@H]23)[C@@]2(C)CC[C@@H](O)C[C@@H]12 | 2
25 | 230 | 87 |  |  |  | CC[C@H]1[C@@H](O)[C@@H]2[C@H](CC[C@]3(C)[C@@H]([C@H](C)CCNS(=O)(=O)C4CC4)CC[C@@H]23)[C@@]2(C)CC[C@@H](O)C[C@@H]12 | 
26 | 300 | 140 |  |  |  | CC[C@H]1[C@@H](O)[C@@H]2[C@H](CC[C@]3(C)[C@@H]([C@H](C)CCNC(=O)OC4CCCCC4)CC[C@@H]23)[C@@]2(C)CC[C@@H](O)C[C@@H]12 | 
27 | 280 | 138 | 280 | 174 | 100 | CCOC(=O)NCC[C@@H](C)[C@H]1CC[C@H]2[C@@H]3[C@H](O)[C@H](CC)[C@@H]4C[C@H](O)CC[C@]4(C)[C@H]3CC[C@]12C | 1

Row | SMILES | EC50 (Bile acid receptor [1]) [nM] | Efficacy [2] [%] | EC50 [3] [nM] | Efficacy [4] [%] | EC50 (Bile acid receptor [5]) [nM] | Ratio EC50 (Homo sapiens)
28 | CC[C@H]1[C@@H](O)[C@@H]2[C@H](CC[C@]3(C)[C@@H]([C@H](C)CCCNS(=O)(=O)c4ccccc4)CC[C@@H]23)[C@@]2(C)CC[C@@H](O)C[C@@H]12 | 230 | 79 |  |  |  | 
29 | CC[C@H]1[C@@H](O)[C@@H]2[C@H](CC[C@]3(C)[C@@H]([C@H](C)CCc4nn[nH]n4)CC[C@@H]23)[C@@]2(C)CC[C@@H](O)C[C@@H]12 |  | 153 |  |  |  | 30
30 | CC[C@H]1[C@@H](O)[C@@H]2[C@H](CC[C@]3(C)[C@@H]([C@H](C)CCC(=O)O)CC[C@@H]23)[C@@]2(C)CCCC[C@@H]12 | 400 | 126 |  |  |  | 
31 | CC[C@H]1[C@@H](O)[C@@H]2[C@H](CC[C@]3(C)[C@@H]([C@H](C)CCC(=O)O)CC[C@@H]23)[C@@]2(C)CCC(F)(F)C[C@@H]12 | 1100 | 109 |  |  |  | 
32 | CC[C@H]1[C@@H](O)[C@@H]2[C@H](CC[C@]3(C)[C@@H]([C@H](C)CCNS(=O)(=O)c4ccccc4)CC[C@@H]23)[C@@]2(C)CC[C@@H](O)C[C@@H]12 | 470 | 117 |  |  |  | 
33 | CC[C@H]1[C@@H](O)[C@@H]2[C@H](CC[C@]3(C)[C@@H]([C@H](C)CCC(=O)NCC(=O)O)CC[C@@H]23)[C@@]2(C)CC[C@@H](O)C[C@@H]12 | 290 | 135 |  |  |  | 
